The results in this text go back to ChEMBL document CHEMBL1201862, “PubChem BioAssay data set” (2004).

In assay [1] the target is Ras and Rab interactor 1/Tyrosine-protein kinase ABL1 (Homo sapiens, UniProt P00519+Q13671). In kind it is functional.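 Further: biochemical TR-FRET dose-response test measuring inhibition of binding between Rin1 and Abl proteins.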
In assay [2] the target is T1, Rac GTPase-activating protein 1 (Homo sapiens, UniProt Q9H0H5).
T1 sequence (Q9H0H5 whole entry): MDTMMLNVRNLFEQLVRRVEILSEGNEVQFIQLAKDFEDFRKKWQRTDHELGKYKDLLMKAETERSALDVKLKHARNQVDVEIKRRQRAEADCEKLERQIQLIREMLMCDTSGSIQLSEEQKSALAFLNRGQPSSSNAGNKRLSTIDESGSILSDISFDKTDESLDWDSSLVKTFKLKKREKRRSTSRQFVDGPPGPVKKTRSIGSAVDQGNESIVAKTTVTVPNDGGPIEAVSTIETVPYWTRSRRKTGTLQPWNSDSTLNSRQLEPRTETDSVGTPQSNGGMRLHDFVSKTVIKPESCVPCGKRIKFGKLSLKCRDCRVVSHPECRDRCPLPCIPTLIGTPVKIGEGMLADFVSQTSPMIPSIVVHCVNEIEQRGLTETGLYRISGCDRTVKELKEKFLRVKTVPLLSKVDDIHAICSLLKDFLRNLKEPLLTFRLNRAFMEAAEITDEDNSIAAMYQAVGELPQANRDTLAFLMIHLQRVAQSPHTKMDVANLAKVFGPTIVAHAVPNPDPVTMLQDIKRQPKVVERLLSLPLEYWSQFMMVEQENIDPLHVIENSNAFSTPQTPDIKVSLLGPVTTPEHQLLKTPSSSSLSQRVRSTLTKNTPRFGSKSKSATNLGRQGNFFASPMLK
Briefly: MgcRacGAP GTPase-activating activity inhibitors, confirmation, biochemical, ADP Hunter fluorescence, primary and confirmatory (AID 624330). The format is functional.

Assay [3] in a line: HeLa cell cytotoxicity, dose response, cytotoxicity control for MgcRacGAP inhibitor project (AID 624300). In kind it is functional.
Assay [4] has as its target Photoreceptor-specific nuclear receptor (Homo sapiens, UniProt Q9Y5X4). In kind it is functional, cell-based.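 Further: CHO-S cells with Gal4-NCOR and VP16-NR2E3 two-hybrid luciferase reporter.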
The target in assay [5] is Heat shock protein HSP 90-alpha (Homo sapiens, UniProt P07900). In kind it is functional, organism-based.
The target in the next assay is T2, Caspase-3 (Homo sapiens, UniProt P42574).
T2 sequence (P42574 whole entry): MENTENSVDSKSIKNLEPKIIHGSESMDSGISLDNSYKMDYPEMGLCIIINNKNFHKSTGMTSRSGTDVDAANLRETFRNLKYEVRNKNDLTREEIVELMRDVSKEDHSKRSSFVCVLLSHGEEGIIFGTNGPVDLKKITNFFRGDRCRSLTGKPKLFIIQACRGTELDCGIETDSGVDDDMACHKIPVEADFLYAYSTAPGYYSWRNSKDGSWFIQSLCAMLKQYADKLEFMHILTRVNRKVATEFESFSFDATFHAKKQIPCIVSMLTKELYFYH
Briefly: SAR Analysis of small molecule inhibitors of Sentrin-specific proteases (SENPs) using a Caspase-3 Selectivity assay. [Related pubchem assays (depositor defined):AID2540, AID2599, AID434973, AID489001]. The format is functional.

In assay [6] the target is T3, Sentrin-specific protease 7 (Homo sapiens, UniProt Q9BQF6).
T3 sequence (Q9BQF6 whole entry): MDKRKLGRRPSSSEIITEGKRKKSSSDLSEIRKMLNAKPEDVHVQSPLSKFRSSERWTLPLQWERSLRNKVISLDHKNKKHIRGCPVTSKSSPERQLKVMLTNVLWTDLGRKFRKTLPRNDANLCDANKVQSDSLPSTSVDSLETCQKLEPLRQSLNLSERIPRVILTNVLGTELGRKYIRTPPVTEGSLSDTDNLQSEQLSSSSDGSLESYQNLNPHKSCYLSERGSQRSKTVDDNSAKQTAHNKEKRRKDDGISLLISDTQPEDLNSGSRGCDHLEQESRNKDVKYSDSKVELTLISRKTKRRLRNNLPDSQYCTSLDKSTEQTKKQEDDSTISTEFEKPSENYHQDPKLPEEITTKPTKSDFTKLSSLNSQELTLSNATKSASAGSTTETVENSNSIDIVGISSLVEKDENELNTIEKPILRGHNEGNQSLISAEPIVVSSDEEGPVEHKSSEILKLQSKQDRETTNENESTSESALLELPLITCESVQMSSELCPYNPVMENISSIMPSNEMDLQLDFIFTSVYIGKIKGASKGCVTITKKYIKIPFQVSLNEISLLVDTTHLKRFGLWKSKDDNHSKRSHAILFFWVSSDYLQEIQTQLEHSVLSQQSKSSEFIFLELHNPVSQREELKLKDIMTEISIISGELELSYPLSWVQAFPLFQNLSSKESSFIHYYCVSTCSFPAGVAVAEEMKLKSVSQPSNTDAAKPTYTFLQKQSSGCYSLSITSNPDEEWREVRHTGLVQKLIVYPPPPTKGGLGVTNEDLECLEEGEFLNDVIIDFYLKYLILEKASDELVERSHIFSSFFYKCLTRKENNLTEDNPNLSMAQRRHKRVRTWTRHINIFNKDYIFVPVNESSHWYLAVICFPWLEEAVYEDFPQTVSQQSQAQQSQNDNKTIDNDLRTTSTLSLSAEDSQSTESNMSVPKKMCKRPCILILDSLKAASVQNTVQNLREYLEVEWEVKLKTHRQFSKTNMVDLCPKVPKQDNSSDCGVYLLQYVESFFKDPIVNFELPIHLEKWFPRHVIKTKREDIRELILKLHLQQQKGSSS
Briefly: SENP7 protease inhibitors, SAR follow-up, biochemical, luminescence (AID 504497). The format is functional.

For assay [7], the target named is T4, Sentrin-specific protease 8 (Homo sapiens, UniProt Q96LD8).
T4 sequence (Q96LD8 whole entry): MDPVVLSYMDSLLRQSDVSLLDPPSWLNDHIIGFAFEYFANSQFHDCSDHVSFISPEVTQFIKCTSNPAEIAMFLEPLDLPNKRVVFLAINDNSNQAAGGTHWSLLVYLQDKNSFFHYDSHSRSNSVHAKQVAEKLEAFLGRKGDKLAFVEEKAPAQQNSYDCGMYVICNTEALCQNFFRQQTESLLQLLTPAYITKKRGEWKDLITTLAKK
In words: SENP8 protease inhibitors, SAR follow-up, biochemical, luminescence (AID 504501). In kind it is functional.

In assay [8] the target is T5, Sentrin-specific protease 6 (Homo sapiens, UniProt Q9GZR1).
T5 sequence (Q9GZR1 whole entry): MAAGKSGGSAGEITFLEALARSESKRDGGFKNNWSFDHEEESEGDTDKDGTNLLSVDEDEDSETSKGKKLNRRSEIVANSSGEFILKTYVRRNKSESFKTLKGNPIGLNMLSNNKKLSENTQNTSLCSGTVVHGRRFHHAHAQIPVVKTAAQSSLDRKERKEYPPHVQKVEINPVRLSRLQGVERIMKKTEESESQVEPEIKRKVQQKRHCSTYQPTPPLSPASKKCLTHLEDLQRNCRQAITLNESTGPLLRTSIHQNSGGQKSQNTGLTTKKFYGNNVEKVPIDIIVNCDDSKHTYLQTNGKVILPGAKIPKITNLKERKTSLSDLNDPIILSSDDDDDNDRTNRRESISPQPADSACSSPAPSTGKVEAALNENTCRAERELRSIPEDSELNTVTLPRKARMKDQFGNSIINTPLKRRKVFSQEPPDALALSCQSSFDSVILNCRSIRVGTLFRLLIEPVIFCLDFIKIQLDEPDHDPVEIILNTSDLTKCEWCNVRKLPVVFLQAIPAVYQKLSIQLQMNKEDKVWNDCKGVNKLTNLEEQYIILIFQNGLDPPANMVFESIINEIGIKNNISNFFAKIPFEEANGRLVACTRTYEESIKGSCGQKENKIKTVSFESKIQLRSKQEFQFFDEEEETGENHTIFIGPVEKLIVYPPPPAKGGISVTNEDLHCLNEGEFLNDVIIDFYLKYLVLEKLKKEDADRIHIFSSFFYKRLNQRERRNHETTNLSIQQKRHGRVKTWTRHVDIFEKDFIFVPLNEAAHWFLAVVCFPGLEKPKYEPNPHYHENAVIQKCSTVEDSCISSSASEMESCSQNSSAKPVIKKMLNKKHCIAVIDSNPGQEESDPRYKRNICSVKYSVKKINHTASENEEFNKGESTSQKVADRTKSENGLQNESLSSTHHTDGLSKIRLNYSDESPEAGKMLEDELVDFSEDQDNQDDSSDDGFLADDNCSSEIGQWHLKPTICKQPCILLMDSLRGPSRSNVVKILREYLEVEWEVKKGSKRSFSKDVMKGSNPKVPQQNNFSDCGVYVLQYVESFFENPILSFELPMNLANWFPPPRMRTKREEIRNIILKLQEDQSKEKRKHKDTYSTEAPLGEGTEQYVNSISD
In words: SAR Analysis of small molecule inhibitors of Sentrin-specific protease 6 (SENP6) using a Luminescent assay. [Related pubchem assays (depositor defined):AID2582, AID2599]. The format is functional.

Assay [9] has as its target T6, DNA repair protein RAD52 homolog (Homo sapiens, UniProt P43351).
T6 sequence (P43351 whole entry): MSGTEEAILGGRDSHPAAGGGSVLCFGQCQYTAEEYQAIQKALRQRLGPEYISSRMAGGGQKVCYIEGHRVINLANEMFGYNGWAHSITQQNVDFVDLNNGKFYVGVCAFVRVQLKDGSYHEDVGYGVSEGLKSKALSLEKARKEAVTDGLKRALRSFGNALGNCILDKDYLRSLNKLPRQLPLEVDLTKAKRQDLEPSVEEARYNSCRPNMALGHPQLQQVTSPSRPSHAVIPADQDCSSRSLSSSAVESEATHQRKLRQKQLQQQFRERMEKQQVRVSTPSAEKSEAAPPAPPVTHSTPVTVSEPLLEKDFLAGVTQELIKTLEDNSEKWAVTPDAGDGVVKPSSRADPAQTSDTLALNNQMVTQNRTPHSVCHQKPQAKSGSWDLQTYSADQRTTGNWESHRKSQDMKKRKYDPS
The format is functional, biochemical.

In assay [10] the target is T7, DNA repair and recombination protein RAD54-like (Homo sapiens, UniProt Q92698).
T7 sequence (Q92698 whole entry): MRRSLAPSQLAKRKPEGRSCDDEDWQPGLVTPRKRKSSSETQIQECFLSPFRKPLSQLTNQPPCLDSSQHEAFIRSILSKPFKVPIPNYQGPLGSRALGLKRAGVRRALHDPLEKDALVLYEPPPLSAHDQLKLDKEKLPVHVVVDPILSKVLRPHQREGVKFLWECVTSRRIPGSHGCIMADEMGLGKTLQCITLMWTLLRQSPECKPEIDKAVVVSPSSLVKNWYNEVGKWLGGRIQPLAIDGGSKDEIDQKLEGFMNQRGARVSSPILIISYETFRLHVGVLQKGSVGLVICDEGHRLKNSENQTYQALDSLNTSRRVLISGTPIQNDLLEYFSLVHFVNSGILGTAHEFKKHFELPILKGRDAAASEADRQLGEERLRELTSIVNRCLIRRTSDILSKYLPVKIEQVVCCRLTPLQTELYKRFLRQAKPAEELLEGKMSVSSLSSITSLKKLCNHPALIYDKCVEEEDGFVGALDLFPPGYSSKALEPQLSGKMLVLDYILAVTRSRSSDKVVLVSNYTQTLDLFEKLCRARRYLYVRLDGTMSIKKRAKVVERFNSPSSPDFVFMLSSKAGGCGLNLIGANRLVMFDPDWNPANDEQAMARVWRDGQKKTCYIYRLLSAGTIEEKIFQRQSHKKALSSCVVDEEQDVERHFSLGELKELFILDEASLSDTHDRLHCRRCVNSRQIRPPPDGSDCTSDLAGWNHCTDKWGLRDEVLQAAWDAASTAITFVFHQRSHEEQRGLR
In words: inhibitors of human RAD54 branch migration, confirmation, biochemical, fluorescence, cherry-picked samples, dose series (AID 651657). The format is functional.

By IC50 is commonly meant the concentration at which inhibition is half-maximal. The CC50 is the concentration that lowers cell viability or growth by half. In general, AC50 refers to the midpoint of the concentration-response curve, whichever way the signal moves.

Calls of active or inactive are those of the source.

Sequence of Ras and Rab interactor 1/Tyrosine-protein kinase ABL1 (P00519 whole entry): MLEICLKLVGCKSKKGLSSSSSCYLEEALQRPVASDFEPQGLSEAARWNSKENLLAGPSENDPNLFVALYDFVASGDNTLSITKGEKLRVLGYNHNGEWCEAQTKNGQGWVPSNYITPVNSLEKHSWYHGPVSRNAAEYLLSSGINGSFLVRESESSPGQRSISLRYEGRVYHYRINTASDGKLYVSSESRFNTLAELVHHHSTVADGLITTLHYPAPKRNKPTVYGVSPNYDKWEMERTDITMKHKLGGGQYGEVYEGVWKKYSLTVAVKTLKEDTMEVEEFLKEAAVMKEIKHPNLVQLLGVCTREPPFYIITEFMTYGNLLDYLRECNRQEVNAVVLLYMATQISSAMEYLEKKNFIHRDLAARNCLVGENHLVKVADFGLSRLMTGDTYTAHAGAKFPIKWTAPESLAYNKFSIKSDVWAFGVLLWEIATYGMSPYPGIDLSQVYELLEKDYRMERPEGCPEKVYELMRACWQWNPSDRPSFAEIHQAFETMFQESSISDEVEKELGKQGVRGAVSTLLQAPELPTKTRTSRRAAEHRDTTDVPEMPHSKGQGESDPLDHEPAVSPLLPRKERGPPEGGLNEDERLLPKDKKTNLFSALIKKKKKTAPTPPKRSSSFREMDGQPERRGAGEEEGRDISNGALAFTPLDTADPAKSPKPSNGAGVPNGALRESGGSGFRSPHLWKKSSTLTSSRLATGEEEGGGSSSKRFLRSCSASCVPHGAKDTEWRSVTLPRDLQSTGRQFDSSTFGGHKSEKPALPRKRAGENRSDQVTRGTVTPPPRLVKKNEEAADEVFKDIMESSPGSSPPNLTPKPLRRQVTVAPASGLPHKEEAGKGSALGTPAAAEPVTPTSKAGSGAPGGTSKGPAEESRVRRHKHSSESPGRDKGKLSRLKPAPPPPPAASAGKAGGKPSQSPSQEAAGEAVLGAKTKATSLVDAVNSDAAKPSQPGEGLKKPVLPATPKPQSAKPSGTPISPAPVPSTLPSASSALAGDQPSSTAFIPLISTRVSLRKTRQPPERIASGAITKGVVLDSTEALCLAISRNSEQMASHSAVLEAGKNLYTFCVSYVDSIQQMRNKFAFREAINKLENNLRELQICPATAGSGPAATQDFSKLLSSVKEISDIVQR
Sequence of Ras and Rab interactor 1/Tyrosine-protein kinase ABL1 (Q13671 whole entry): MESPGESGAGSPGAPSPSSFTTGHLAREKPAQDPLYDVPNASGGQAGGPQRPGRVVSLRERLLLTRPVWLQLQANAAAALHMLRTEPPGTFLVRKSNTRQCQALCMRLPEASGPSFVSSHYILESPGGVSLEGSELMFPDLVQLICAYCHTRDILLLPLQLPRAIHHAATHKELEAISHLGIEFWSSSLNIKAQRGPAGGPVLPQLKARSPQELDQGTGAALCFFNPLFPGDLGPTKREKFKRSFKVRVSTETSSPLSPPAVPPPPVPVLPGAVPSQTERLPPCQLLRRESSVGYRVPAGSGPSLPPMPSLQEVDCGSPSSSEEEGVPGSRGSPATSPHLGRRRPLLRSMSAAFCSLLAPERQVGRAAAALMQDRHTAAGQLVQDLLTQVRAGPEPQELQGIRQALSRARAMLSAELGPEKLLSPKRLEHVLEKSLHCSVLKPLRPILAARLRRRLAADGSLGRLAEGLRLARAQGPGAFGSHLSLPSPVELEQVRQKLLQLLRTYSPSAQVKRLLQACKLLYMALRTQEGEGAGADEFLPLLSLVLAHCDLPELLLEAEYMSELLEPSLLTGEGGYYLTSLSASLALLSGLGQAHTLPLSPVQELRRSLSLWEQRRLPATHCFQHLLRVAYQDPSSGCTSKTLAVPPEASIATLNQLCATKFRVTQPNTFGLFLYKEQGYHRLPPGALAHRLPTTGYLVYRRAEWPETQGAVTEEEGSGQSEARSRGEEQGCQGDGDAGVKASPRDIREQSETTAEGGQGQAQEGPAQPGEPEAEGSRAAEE
Sequence of Photoreceptor-specific nuclear receptor (Q9Y5X4 whole entry, the tested form may be a part): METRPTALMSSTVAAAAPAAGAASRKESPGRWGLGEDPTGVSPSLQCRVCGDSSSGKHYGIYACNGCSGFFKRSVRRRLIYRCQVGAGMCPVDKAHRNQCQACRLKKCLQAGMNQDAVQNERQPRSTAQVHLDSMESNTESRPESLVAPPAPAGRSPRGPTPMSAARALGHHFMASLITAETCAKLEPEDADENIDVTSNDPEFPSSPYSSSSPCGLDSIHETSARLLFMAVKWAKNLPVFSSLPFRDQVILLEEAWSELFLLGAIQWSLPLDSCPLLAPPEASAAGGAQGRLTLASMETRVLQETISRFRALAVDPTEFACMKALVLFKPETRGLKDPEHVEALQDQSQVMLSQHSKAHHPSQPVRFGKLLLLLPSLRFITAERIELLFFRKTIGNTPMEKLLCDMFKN

Take `COc1ccc(CCNc2cc(=O)[nH]c(N)n2)cc1`: the IC50 in assay [1] was 5.15 µM (active).
The same measure, in the same setting: to `CCOc1ccc(CCNC(=O)CN2C(=O)c3cccnc3Oc3ccc(Cl)cc32)cc1` belongs > 73.5 µM (inactive).
For `O=C1C=CC2(O[C@H](c3ccccc3)[C@@H](c3ccccc3)O2)[C@H](Sc2ccccc2O)C1`, the IC50 in assay [2] is 43.8 µM (active); in assay [4], 4.1 µM (active). Also, the 50% cytotoxic concentration (CC50) in assay [3] was 50 µM (active). Moreover, the half-maximal activity concentration (AC50) in assay [5] was 4.16 µM (active).
In the case of `COc1ccc2nc(NC(=O)c3ccc4c(c3)OCCO4)sc2c1`, the IC50 (at Caspase-3; in assay [6]; in [7]; in assay [8]) was > 99 µM (inactive) each time.
As to `Cc1csc(C(=O)Nc2nc3ccc(Cl)cc3s2)c1`, the concentration for half-maximal inhibition (IC50) at Caspase-3 is 36 µM (active); in assay [6], 89 µM (active); in [7] it was > 99 µM (inactive); in [8], > 99 µM (inactive).
Consider `COc1cccc(-c2cc3nc(NCCN4CCCC4)n(C)c(=O)c3s2)c1`, for which the concentration at half-maximal activity (AC50) is 5.5 µM (active) in [9] and 45.4 µM (active) in [10].
In the case of `Cc1cc(NC(=O)COC(=O)CNC(=O)c2sc3ccccc3c2Cl)no1`, the IC50 (at Caspase-3; in assay [6]; in assay [7]; in assay [8]) was > 99 µM (inactive) throughout.
With `COc1ccccc1Nc1c2ccccc2nc2ccccc12`, in assay [10], the AC50 was 29.8 µM (active).
